According to ChEMBL document CHEMBL6134844, “Development of Next-Generation Antimalarial Acridones with Radical Cure Potential” (J Med Chem, 2025):

Experiments:
[1] = Toxicity in CF1 mouse infected with asexual blood-stage (ABS) Plasmodium yoelii MRA-428 assessed as ruffled hair at 0.3 to 30 mg/kg, po treated 24 hrs post infection measured after 4 days; format: organism-based; conditions: in vivo, 96 h, dose 0.3-30 mg/kg, time 4 day
HepG2 = assay: Cytotoxicity against human HepG2 cells assessed as cell viability measured after 48 hrs by MTT assay; format: functional, cell-based; conditions: HepG2, 48 h
[2] = Toxicity in CF1 mouse infected with asexual blood-stage (ABS) Plasmodium yoelii MRA-428 assessed as hunching at 0.3 to 30 mg/kg, po treated 24 hrs post infection measured after 4 days; format: organism-based; conditions: in vivo, 96 h, dose 0.3-30 mg/kg, time 4 day
[3] = Selectivity index, ratio of CC50 for Macaca mulatta hepatocytes to IC50 for antiplasmodial activity against schizont Plasmodium cynomolgi B strain infected in Macaca mulatta hepatocytes incubated with sporozoite containing salivary gland homogenate obtained from dissected Anopheles dirus mosquitoes (infected with Plasmodium cynomolgi B strain) treatment started on day 4 post infection and continued daily for 4 days into fresh changed media until day 8 assessed as Liver stage (LS) activity by measuring radical cure mode by immunofluorescent staining analysis; format: toxicity, cell-based; conditions: rhesus monkey, read-out: Selectivity Index
[4] = Selectivity index, ratio of CC50 for Macaca mulatta hepatocytes to IC50 for antiplasmodial activity against hypnozoite Plasmodium cynomolgi B strain infected in Macaca mulatta hepatocytes incubated with sporozoite containing salivary gland homogenate obtained from dissected Anopheles dirus mosquitoes (infected with Plasmodium cynomolgi B strain) treatment started on day 4 post infection and continued daily for 4 days into fresh changed media until day 8 assessed as Liver stage (LS) activity by measuring prophylactic mode by immunofluorescent staining analysis; format: toxicity, cell-based; conditions: rhesus monkey, read-out: Selectivity Index
Plasmodium falciparum [5] = assay: Antiplasmodial activity against asexual blood-stage (ABS) MDR Plasmodium falciparum Dd2 infected in human erythrocytes assessed as reduction in fluorescence measured after 72 hrs by Malaria SYBR Green I-based Fluorescence (MSF) assay; format: functional, organism-based; conditions: Dd2, Erythrocyte
Plasmodium cynomolgi [6] = assay: Antiplasmodial activity against schizont Plasmodium cynomolgi B strain infected in Macaca mulatta hepatocytes incubated with sporozoite containing salivary gland homogenate obtained from dissected Anopheles dirus mosquitoes (infected with Plasmodium cynomolgi B strain) treatment started on day 4 post infection and continued daily for 4 days into fresh changed media until day 8 assessed as Liver stage (LS) activity by measuring prophylactic mode by immunofluorescent staining analysis; format: functional, organism-based; conditions: Hepatocyte
[7] = Toxicity in CF1 mouse infected with asexual blood-stage (ABS) Plasmodium yoelii MRA-428 assessed as lethargy at 0.3 to 30 mg/kg, po treated 24 hrs post infection measured after 4 days; format: organism-based; conditions: in vivo, 96 h, dose 0.3-30 mg/kg, time 4 day
Plasmodium falciparum [8] = assay: Antiplasmodial activity against asexual blood-stage (ABS) CQ-sensitive Plasmodium falciparum D6 infected in human erythrocytes assessed as reduction in fluorescence measured after 72 hrs by Malaria SYBR Green I-based Fluorescence (MSF) assay; format: functional, organism-based; conditions: D6, Erythrocyte
[9] = Toxicity in CF1 mouse infected with asexual blood-stage (ABS) Plasmodium yoelii MRA-428 assessed as hyperactivity at 0.3 to 30 mg/kg, po treated 24 hrs post infection measured after 4 days; format: organism-based; conditions: in vivo, 96 h, dose 0.3-30 mg/kg, time 4 day
[10] = mouse, microsomes, 1 h
Plasmodium cynomolgi [11] = assay: Antiplasmodial activity against hypnozoite Plasmodium cynomolgi B strain infected in Macaca mulatta hepatocytes incubated with sporozoite containing salivary gland homogenate obtained from dissected Anopheles dirus mosquitoes (infected with Plasmodium cynomolgi B strain) treatment started on day 4 post infection and continued daily for 4 days into fresh changed media until day 8 assessed as Liver stage (LS) activity by measuring radical cure mode by immunofluorescent staining analysis; format: functional, organism-based; conditions: Hepatocyte
[12] = Toxicity in CF1 mouse infected with asexual blood-stage (ABS) Plasmodium yoelii MRA-428 assessed as weight loss at 0.3 to 30 mg/kg, po treated 24 hrs post infection measured after 4 days; format: organism-based; conditions: in vivo, 96 h, dose 0.3-30 mg/kg, time 4 day
Plasmodium cynomolgi [13] = assay: Antiplasmodial activity against schizont Plasmodium cynomolgi B strain infected in Macaca mulatta hepatocytes incubated with sporozoite containing salivary gland homogenate obtained from dissected Anopheles dirus mosquitoes (infected with Plasmodium cynomolgi B strain) treatment started on day 4 post infection and continued daily for 4 days into fresh changed media until day 8 assessed as Liver stage (LS) activity by measuring radical cure mode by immunofluorescent staining analysis; format: functional, organism-based; conditions: Hepatocyte
Hepatocyte = assay: Cytotoxicity against Macaca mulatta hepatocytes assessed as cell viability measured after 48 hrs by MTT assay; format: toxicity, cell-based; conditions: rhesus monkey, 48 h
[14] = Selectivity index, ratio of CC50 for Macaca mulatta hepatocytes to IC50 for antiplasmodial activity against schizont Plasmodium cynomolgi B strain infected in Macaca mulatta hepatocytes incubated with sporozoite containing salivary gland homogenate obtained from dissected Anopheles dirus mosquitoes (infected with Plasmodium cynomolgi B strain) treatment started on day 4 post infection and continued daily for 4 days into fresh changed media until day 8 assessed as Liver stage (LS) activity by measuring prophylactic mode by immunofluorescent staining analysis; format: toxicity, cell-based; conditions: rhesus monkey, read-out: Selectivity Index
Plasmodium falciparum [15] = assay: Antiplasmodial activity against asexual blood-stage (ABS) ATV-resistant clinical isolate Plasmodium falciparum Tm90-C2B infected in human erythrocytes assessed as reduction in fluorescence measured after 72 hrs by Malaria SYBR Green I-based Fluorescence (MSF) assay; format: functional, organism-based; conditions: Erythrocyte
Plasmodium cynomolgi [16] = assay: Antiplasmodial activity against hypnozoite Plasmodium cynomolgi B strain infected in Macaca mulatta hepatocytes incubated with sporozoite containing salivary gland homogenate obtained from dissected Anopheles dirus mosquitoes (infected with Plasmodium cynomolgi B strain) treatment started on day 4 post infection and continued daily for 4 days into fresh changed media until day 8 assessed as Liver stage (LS) activity by measuring prophylactic mode by immunofluorescent staining analysis; format: functional, organism-based; conditions: Hepatocyte
[17] = human, microsomes, 1 h
[18] = Toxicity in CF1 mouse infected with asexual blood-stage (ABS) Plasmodium yoelii MRA-428 assessed as behavioural change at 0.3 to 30 mg/kg, po treated 24 hrs post infection measured after 4 days; format: organism-based; conditions: in vivo, dose 0.3-30 mg/kg
[19] = Toxicity in CF1 mouse infected with asexual blood-stage (ABS) Plasmodium yoelii MRA-428 assessed as clinical toxicity at 0.3 to 30 mg/kg, po treated 24 hrs post infection measured after 4 days; format: organism-based; conditions: in vivo, dose 0.3-30 mg/kg
Plasmodium yoelii = assay: In vivo antiplasmodial activity against asexual blood-stage (ABS) Plasmodium yoelii MRA-428 infected in 4-day suppression CF1 mouse model assessed as reduction in parasitemia treated 24 hrs post infection daily measured on day 4; format: functional
[20] = Selectivity index, ratio of CC50 for Macaca mulatta hepatocytes to IC50 for antiplasmodial activity against hypnozoite Plasmodium cynomolgi B strain infected in Macaca mulatta hepatocytes incubated with sporozoite containing salivary gland homogenate obtained from dissected Anopheles dirus mosquitoes (infected with Plasmodium cynomolgi B strain) treatment started on day 4 post infection and continued daily for 4 days into fresh changed media until day 8 assessed as Liver stage (LS) activity by measuring radical cure mode by immunofluorescent staining analysis; format: toxicity, cell-based; conditions: rhesus monkey, read-out: Selectivity Index

SMILES: O=c1c2c([nH]c3c(Oc4ccc(OC(F)(F)F)cc4)cccc13)CCCC2
- Activity [1]: Non-toxic
- IC50 (HepG2): > 200 µM
- Activity [2]: Non-toxic
- selectivity ratio at 96 h [3]: > 1.12
- selectivity ratio at 96 h [4]: > 1.53
- IC50 (Plasmodium falciparum [5]): 83.8 nM
- IC50 (Plasmodium cynomolgi [6]): 7.63 µM
- Activity [7]: Non-toxic
- IC50 (Plasmodium falciparum [8]): 57.5 nM
- Activity [9]: Non-toxic
- CLH [10]: 6.85 µL/min/mg
- IC50 (Plasmodium cynomolgi [11]): > 20 µM
- Activity [12]: Non-toxic
- IC50 (Plasmodium cynomolgi [13]): 17.9 µM
- CC50 (Hepatocyte): > 20 µM
- selectivity ratio at 96 h [14]: > 2.62
- IC50 (Plasmodium falciparum [15]): 0.219 µM
- IC50 (Plasmodium cynomolgi [16]): 13.1 µM
- t1/2 [17]: > 1 h

SMILES: O=c1c2ccc(Oc3cccc(OC(F)(F)F)c3)cc2[nH]c2cc(Cl)cc(F)c12
- Activity [18]: Non-toxic
- IC50 (HepG2): > 200 µM
- selectivity ratio at 96 h [3]: > 1.24
- selectivity ratio at 96 h [4]: > 35.7
- IC50 (Plasmodium falciparum [5]): 0.02 nM
- IC50 (Plasmodium cynomolgi [6]): 0.03 µM
- IC50 (Plasmodium falciparum [8]): 0.07 nM
- CLH [10]: 273 µL/min/mg
- IC50 (Plasmodium cynomolgi [11]): > 20 µM
- Activity [19]: Non-toxic
- IC50 (Plasmodium cynomolgi [13]): 16.1 µM
- CC50 (Hepatocyte): > 20 µM
- selectivity ratio at 96 h [14]: > 667
- IC50 (Plasmodium falciparum [15]): 0.0086 µM
- ED50 (Plasmodium yoelii): 0.19 mg/kg
- ED90 (Plasmodium yoelii): 0.9 mg/kg
- IC50 (Plasmodium cynomolgi [16]): 0.56 µM

SMILES: CCN(CC)CCCOc1ccc2c(=O)c3c([nH]c2c1)CCCC3
- Activity [1]: Non-toxic
- Activity [2]: Non-toxic
- IC50 (Plasmodium falciparum [5]): > 2500 nM
- IC50 (Plasmodium cynomolgi [6]): 11 µM
- Activity [7]: Non-toxic
- IC50 (Plasmodium falciparum [8]): > 2500 nM
- Activity [9]: Non-toxic
- CLH [10]: > 500 µL/min/mg
- IC50 (Plasmodium cynomolgi [11]): > 20 µM
- Activity [12]: Non-toxic
- IC50 (Plasmodium cynomolgi [13]): > 20 µM
- CC50 (Hepatocyte): > 20 µM
- selectivity ratio at 96 h [14]: > 1.82
- IC50 (Plasmodium falciparum [15]): > 2.5 µM
- IC50 (Plasmodium cynomolgi [16]): > 20 µM
- t1/2 [17]: > 1 h

SMILES: CC(C)(C)OC(=O)N1CCC(Oc2ccc3c(=O)c4c(F)cc(Cl)cc4[nH]c3c2)C1 (configuration not stated)
- Activity [18]: Non-toxic
- IC50 (HepG2): > 2.5 µM
- selectivity ratio at 96 h [3]: 12.8
- selectivity ratio at 96 h [4]: 18.4
- selectivity ratio at 96 h [20]: 4.96
- IC50 (Plasmodium falciparum [5]): 0.183 nM
- IC50 (Plasmodium cynomolgi [6]): 0.07 µM
- CLH [10]: < 3.125 µL/min/mg
- IC50 (Plasmodium cynomolgi [11]): 2.48 µM
- Activity [19]: Non-toxic
- IC50 (Plasmodium cynomolgi [13]): 0.96 µM
- CC50 (Hepatocyte): 12.3 µM
- selectivity ratio at 96 h [14]: 176
- IC50 (Plasmodium falciparum [15]): 0.113 µM
- ED50 (Plasmodium yoelii): 0.1 mg/kg
- ED90 (Plasmodium yoelii): 0.43 mg/kg
- IC50 (Plasmodium cynomolgi [16]): 0.67 µM
- t1/2 [17]: > 1 h

SMILES: O=c1c2c([nH]c3cccc(Oc4ccc(OC(F)(F)F)cc4)c13)CCCC2
- Activity [1]: Non-toxic
- IC50 (HepG2): > 200 µM
- Activity [2]: Non-toxic
- selectivity ratio at 96 h [3]: 2.05
- selectivity ratio at 96 h [4]: 0.787
- selectivity ratio at 96 h [20]: 1.57
- IC50 (Plasmodium falciparum [5]): > 2500 nM
- IC50 (Plasmodium cynomolgi [6]): 3.34 µM
- Activity [7]: Non-toxic
- IC50 (Plasmodium falciparum [8]): > 2500 nM
- Activity [9]: Non-toxic
- CLH [10]: 48 µL/min/mg
- IC50 (Plasmodium cynomolgi [11]): 3.83 µM
- Activity [12]: Non-toxic
- IC50 (Plasmodium cynomolgi [13]): 2.92 µM
- CC50 (Hepatocyte): 6 µM
- selectivity ratio at 96 h [14]: 1.79
- IC50 (Plasmodium falciparum [15]): > 2.5 µM
- IC50 (Plasmodium cynomolgi [16]): 7.62 µM

SMILES: CCN(CC)CCCC(C)Nc1ccnc2cc(Cl)ccc12 (configuration not stated) [CHLOROQUINE]
- Activity [18]: Non-toxic
- Activity [19]: Non-toxic

SMILES: CCN(CC)CCOc1ccc2c(=O)c3c([nH]c2c1)CCCC3
- Activity [1]: Non-toxic
- Activity [2]: Non-toxic
- IC50 (Plasmodium falciparum [5]): > 2500 nM
- IC50 (Plasmodium cynomolgi [6]): 14 µM
- Activity [7]: Non-toxic
- IC50 (Plasmodium falciparum [8]): > 2500 nM
- Activity [9]: Non-toxic
- CLH [10]: > 500 µL/min/mg
- IC50 (Plasmodium cynomolgi [11]): > 20 µM
- Activity [12]: Non-toxic
- IC50 (Plasmodium cynomolgi [13]): > 20 µM
- CC50 (Hepatocyte): > 20 µM
- selectivity ratio at 96 h [14]: > 1.43
- IC50 (Plasmodium falciparum [15]): > 2.5 µM
- IC50 (Plasmodium cynomolgi [16]): > 20 µM
- t1/2 [17]: > 1 h

SMILES: O=c1c2c([nH]c3cc(Oc4cccc(OC(F)(F)F)c4)ccc13)CCCC2
- Activity [1]: Non-toxic
- IC50 (HepG2): > 200 µM
- Activity [2]: Non-toxic
- selectivity ratio at 96 h [3]: 1.47
- selectivity ratio at 96 h [4]: 2.18
- selectivity ratio at 96 h [20]: 1.25
- IC50 (Plasmodium falciparum [5]): 0.537 nM
- IC50 (Plasmodium cynomolgi [6]): 0.6 µM
- Activity [7]: Non-toxic
- IC50 (Plasmodium falciparum [8]): 0.116 nM
- Activity [9]: Non-toxic
- CLH [10]: 29.7 µL/min/mg
- IC50 (Plasmodium cynomolgi [11]): 7.99 µM
- Activity [12]: Non-toxic
- IC50 (Plasmodium cynomolgi [13]): 6.87 µM
- CC50 (Hepatocyte): 10.1 µM
- selectivity ratio at 96 h [14]: 16.8
- IC50 (Plasmodium falciparum [15]): 0.00438 µM
- IC50 (Plasmodium cynomolgi [16]): 4.64 µM
- t1/2 [17]: > 1 h
